Key:
MAO-B = conditions: previously-published work; cited from earlier work
BT-111 [1] = test: Cell death, Hoechst viability stain; assay type: cell-based, human; conditions: BT-111, high concentrations, 2 μM selegiline, 24 hrs
BT-115 [2] = test: Cell death, Hoechst viability stain; assay type: cell-based, human; conditions: BT-115, high concentrations, 2 μM selegiline, 24 hrs
BT-115 [3] = test: Total cell protein mass, BCA/SDS method; assay type: cell-based, human; conditions: BT-115, with 2 μM selegiline, 24 hr
BT-111 [4] = test: Total cell protein mass, BCA/SDS method; assay type: cell-based, human; conditions: BT-111, with 2 μM selegiline, 24 hr
hMAO-A = molecular target: T1, hMAO-A (Homo sapiens, UniProt P21397); conditions: Fierro and co-workers; cited from earlier work
T1 sequence (P21397 1-527): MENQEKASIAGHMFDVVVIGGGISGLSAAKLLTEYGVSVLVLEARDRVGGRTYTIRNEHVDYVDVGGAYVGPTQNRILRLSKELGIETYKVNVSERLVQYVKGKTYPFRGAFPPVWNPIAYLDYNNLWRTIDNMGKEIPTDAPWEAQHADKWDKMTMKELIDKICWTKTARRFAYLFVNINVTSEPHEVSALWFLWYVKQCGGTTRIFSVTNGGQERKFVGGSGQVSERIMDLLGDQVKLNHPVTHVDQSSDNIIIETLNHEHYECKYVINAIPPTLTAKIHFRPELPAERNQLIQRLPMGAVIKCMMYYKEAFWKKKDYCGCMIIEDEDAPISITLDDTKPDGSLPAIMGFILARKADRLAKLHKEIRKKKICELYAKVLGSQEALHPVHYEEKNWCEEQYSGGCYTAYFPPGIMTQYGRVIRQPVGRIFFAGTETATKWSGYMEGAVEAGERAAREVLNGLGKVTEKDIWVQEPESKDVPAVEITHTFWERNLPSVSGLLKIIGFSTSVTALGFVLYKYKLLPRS

BT-111 cells = assay type: cell-based, human

## 1-methyl-4-(3-methylfuran-yl)-1,2,3,6-tetrahydropyridine
MAO-B
  MAO-B substrate quality: excellent MAO-B substrates

## CN1CC=C(C2CCCCC2)CC1 [4-cyclohexyl-1-methyl-1,2,3,6-tetrahydropyridine]
MAO-B
  MAO-B substrate quality: excellent MAO-B substrates

## CCc1c2c(nc3ccc(OCCCN)cc13)-c1cc3c(c(=O)n1C2)COC(=O)[C@]3(O)CC [APE-SN38, 7-ethyl-10-(3-aminprop)-oxy-camptothecine]
BT-111 [1]
  cell death on co-incubation with selegiline: could be arrested
BT-115 [2]
  cell death on co-incubation with selegiline: could be arrested
BT-115 [3]
  protection by selegiline: almost complete protection
BT-111 [4]
  protection by selegiline: almost complete protection

## CSc1ccc(CC(C)N)cc1 (centres unmarked) [MTA]
hMAO-A
  times better at inhibiting hMAO-A than hMAO-B: > 1000 times

## C#CCN(C)[C@H](C)Cc1ccccc1 [Selegiline]
BT-111 cells
  effect on mitochondrial membrane potential: no effect
